Laboratory results taken from patent publication US8927500B2, “Peptidomimetic macrocycles” (Aileron Therapeutics, Inc., priority 2012, dated 2015).
Where a SMILES comes first, the peptide text is derived from it. Bridges are numbered along the chain shown (N, C = ends). [ ]: non-standard residue; d: D form. The star is where a group is joined. Trp(6-Cl) = N[C@@H](Cc1c[nH]c2cc(Cl)ccc12)C(=O)O; Phe(4-COOH) = N[C@@H](Cc1ccc(C(=O)O)cc1)C(=O)O; Phe(3,4-F2) = N[C@@H](Cc1ccc(F)c(F)c1)C(=O)O; Palmitoyl = CCCCCCCCCCCCCCCC(=O)*; R8 = C=CCCCCCC[C@@](C)(N)C(=O)O; Cba = N[C@@H](CC1CCC1)C(=O)O; S5 = C=CCCC[C@](C)(N)C(=O)O; Nle = CCCC[C@H](N)C(=O)O

Columns and labels:
MDM2 = MDM2 (Homo sapiens, UniProt Q00987); assay: Competitive fluorescence polarization assay for MDM2; type: binding; conditions: competitive FP assay, MDM2; for IC50: read-out: IC50 (MDM2); for Ki: read-out: Ki (MDM2)
Sequence of MDM2 (Q00987 1-125): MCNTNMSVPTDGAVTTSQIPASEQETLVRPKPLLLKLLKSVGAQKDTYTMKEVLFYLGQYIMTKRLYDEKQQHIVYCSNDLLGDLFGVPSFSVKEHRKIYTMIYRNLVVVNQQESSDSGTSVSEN

MDMX = target: T1, MDMX (Homo sapiens, UniProt O15151); assay: Competitive fluorescence polarization assay for MDMX; type: binding; conditions: competitive FP assay; for IC50: read-out: IC50 (MDMX); for Ki: read-out: Ki (MDMX)
T1 sequence (O15151 1-125): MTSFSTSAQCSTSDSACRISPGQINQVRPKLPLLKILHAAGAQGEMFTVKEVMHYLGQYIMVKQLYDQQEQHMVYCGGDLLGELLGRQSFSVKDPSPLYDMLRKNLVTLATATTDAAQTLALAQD

SMILES	IC50 (MDM2)	Ki (MDM2)	IC50 (MDMX)	Ki (MDMX)
CC[C@H](C)[C@H](NC(=O)[C@H](C)NC(=O)[C@H](C)NC(=O)[C@]1(C)CCCC=CCCCCCC[C@@](C)(NC(=O)[C@H](Cc2ccc(F)c(F)c2)NC(=O)[C@@H](NC(=O)[C@H](CC(C)C)NC(C)=O)[C@@H](C)O)C(=O)N[C@@H](CCC(=O)O)C(=O)N[C@@H](Cc2ccc(O)cc2)C(=O)N[C@@H](Cc2c[nH]c3ccccc23)C(=O)N[C@@H](C)C(=O)N[C@@H](CCC(N)=O)C(=O)N[C@@H](CC2CCC2)C(=O)N1)C(=O)N[C@H](C)C(N)=O [compound 248] (Ac-LT[Phe(3,4-F2)][R8]EYWAQ[Cba][S5]AAI[dA]-NH2; staple 4-11)	10 to 100 nM	< 10 nM	10 to 100 nM	10 to 100 nM
CCCCCCCCCCCCCCCC(=O)N[C@@H](CCC(=O)O)C(=O)N[C@H](C(=O)N[C@@H](Cc1ccccc1)C(=O)N[C@]1(C)CCCCCCC=CCCC[C@@](C)(C(=O)N[C@@H](CO)C(=O)N[C@@H](C)C(=O)N[C@@H](C)C(N)=O)NC(=O)[C@H](CC2CCC2)NC(=O)[C@H](CCC(N)=O)NC(=O)[C@H](C)NC(=O)[C@H](Cc2c[nH]c3ccccc23)NC(=O)[C@H](Cc2ccc(O)cc2)NC(=O)[C@H](CCC(=O)O)NC1=O)[C@@H](C)O [compound 250] (Palmitoyl-ETF[R8]EYWAQ[Cba][S5]SAA-NH2; staple 4-11)	100 to 1000 nM	100 to 1000 nM	> 1000 nM	> 1000 nM
CC(=O)N[C@@H](CC(C)C)C(=O)N[C@H](C(=O)N[C@@H](Cc1ccccc1)C(=O)N[C@]1(C)CCCCCCC=CCCC[C@@](C)(C(=O)N[C@@H](CO)C(=O)N[C@@H](C)C(=O)N[C@@H](C)C(N)=O)NC(=O)[C@H](CC2CCC2)NC(=O)[C@H](CCC(N)=O)NC(=O)[C@H](C)NC(=O)[C@H](Cc2c[nH]c3ccccc23)NC(=O)[C@H](Cc2ccc(O)cc2)NC(=O)[C@H](C)NC1=O)[C@@H](C)O [compound 255] (Ac-LTF[R8]AYWAQ[Cba][S5]SAA-NH2; staple 4-11)	10 to 100 nM	< 10 nM	10 to 100 nM	10 to 100 nM
CC(=O)N[C@@H](CC(C)C)C(=O)N[C@H](C(=O)N[C@@H](Cc1ccccc1)C(=O)N[C@]1(C)CCCCCCC=CCCC[C@@](C)(C(=O)N[C@@H](CO)C(=O)N[C@@H](C)C(=O)N[C@@H](Cc2ccccc2)C(N)=O)NC(=O)[C@H](CC2CCC2)NC(=O)[C@H](CCC(N)=O)NC(=O)[C@H](C)NC(=O)[C@H](Cc2c[nH]c3ccccc23)NC(=O)[C@H](Cc2ccc(O)cc2)NC(=O)[C@H](CCC(=O)O)NC1=O)[C@@H](C)O [compound 256] (Ac-LTF[R8]EYWAQ[Cba][S5]SAF-NH2; staple 4-11)	10 to 100 nM	< 10 nM	10 to 100 nM	10 to 100 nM
CC(=O)N[C@@H](CC(C)C)C(=O)N[C@H](C(=O)N[C@@H](Cc1ccccc1)C(=O)N[C@]1(C)CCCCCCC=CCCC[C@@](C)(C(=O)N[C@@H](CO)C(=O)N[C@@H](C)C(=O)N[C@@H](Cc2ccccc2)C(=O)N[C@H](C)C(N)=O)NC(=O)[C@H](CC2CCC2)NC(=O)[C@H](CCC(N)=O)NC(=O)[C@H](C)NC(=O)[C@H](Cc2c[nH]c3ccccc23)NC(=O)[C@H](Cc2ccc(O)cc2)NC(=O)[C@H](CCC(=O)O)NC1=O)[C@@H](C)O [compound 257] (Ac-LTF[R8]EYWAQ[Cba][S5]SAF[dA]-NH2; staple 4-11)	10 to 100 nM	< 10 nM	10 to 100 nM	10 to 100 nM
CC(=O)N[C@@H](CC(C)C)C(=O)N[C@H](C(=O)N[C@@H](Cc1ccccc1)C(=O)N[C@]1(C)CCCCCCC=CCCC[C@@](C)(C(=O)N[C@@H](CO)C(=O)N[C@@H](C)C(=O)N[C@@H](Cc2ccccc2)C(N)=O)NC(=O)[C@H](CC2CCC2)NC(=O)[C@H](CCC(N)=O)NC(=O)[C@H](C)NC(=O)[C@H](Cc2c[nH]c3ccccc23)NC(=O)[C@H](Cc2ccc(O)cc2)NC(=O)[C@H](C)NC1=O)[C@@H](C)O [compound 258] (Ac-LTF[R8]AYWAQ[Cba][S5]SAF-NH2; staple 4-11)	10 to 100 nM	< 10 nM	100 to 1000 nM	10 to 100 nM
CC(=O)N[C@@H](CC(C)C)C(=O)N[C@H](C(=O)N[C@@H](Cc1ccc(F)c(F)c1)C(=O)N[C@]1(C)CCCCCCC=CCCC[C@@](C)(C(=O)N[C@@H](CO)C(=O)N[C@@H](C)C(=O)N[C@@H](Cc2ccccc2)C(N)=O)NC(=O)[C@H](CC2CCC2)NC(=O)[C@H](CCC(N)=O)NC(=O)[C@H](C)NC(=O)[C@H](Cc2c[nH]c3ccccc23)NC(=O)[C@H](Cc2ccc(O)cc2)NC(=O)[C@H](C)NC1=O)[C@@H](C)O [compound 259] (Ac-LT[Phe(3,4-F2)][R8]AYWAQ[Cba][S5]SAF-NH2; staple 4-11)	10 to 100 nM	< 10 nM	10 to 100 nM	10 to 100 nM
CC(=O)N[C@@H](CC(C)C)C(=O)N[C@H](C(=O)N[C@@H](Cc1ccccc1)C(=O)N[C@]1(C)CCCCCCC=CCCC[C@@](C)(C(=O)N[C@@H](CO)C(=O)N[C@@H](C)C(=O)N[C@@H](Cc2ccccc2)C(N)=O)NC(=O)[C@H](CC2CCC2)NC(=O)[C@H](CCC(N)=O)NC(=O)[C@H](C)NC(=O)[C@H](Cc2c[nH]c3ccccc23)NC(=O)[C@H](Cc2ccc(C(=O)O)cc2)NC(=O)[C@H](C)NC1=O)[C@@H](C)O [compound 260] (Ac-LTF[R8]A[Phe(4-COOH)]WAQ[Cba][S5]SAF-NH2; staple 4-11)	10 to 100 nM	< 10 nM	10 to 100 nM	10 to 100 nM
CC(=O)N[C@@H](CC(C)C)C(=O)N[C@H](C(=O)N[C@@H](Cc1ccccc1)C(=O)N[C@]1(C)CCCCCCC=CCCC[C@@](C)(C(=O)N[C@@H](CO)C(=O)N[C@@H](C)C(=O)N[C@@H](Cc2ccccc2)C(N)=O)NC(=O)[C@H](CC2CCC2)NC(=O)[C@H](CCC(N)=O)NC(=O)[C@H](C)NC(=O)[C@H](Cc2c[nH]c3cc(Cl)ccc23)NC(=O)[C@H](Cc2ccc(O)cc2)NC(=O)[C@H](CCC(=O)O)NC1=O)[C@@H](C)O [compound 261] (Ac-LTF[R8]EY[Trp(6-Cl)]AQ[Cba][S5]SAF-NH2; staple 4-11)	10 to 100 nM	< 10 nM	100 to 1000 nM	10 to 100 nM
CC(=O)N[C@@H](CC(C)C)C(=O)N[C@H](C(=O)N[C@@H](Cc1ccccc1)C(=O)N[C@]1(C)CCCCCCC=CCCC[C@@](C)(C(=O)N[C@@H](CO)C(=O)N[C@@H](C)C(=O)N[C@@H](Cc2ccccc2)C(N)=O)NC(=O)[C@H](CC2CCC2)NC(=O)[C@H](CCC(N)=O)NC(=O)[C@H](CO)NC(=O)[C@H](Cc2c[nH]c3ccccc23)NC(=O)[C@H](Cc2ccc(O)cc2)NC(=O)[C@H](C)NC1=O)[C@@H](C)O [compound 262] (Ac-LTF[R8]AYWSQ[Cba][S5]SAF-NH2; staple 4-11)	10 to 100 nM	< 10 nM	100 to 1000 nM	10 to 100 nM
CC(=O)N[C@@H](CC(C)C)C(=O)N[C@H](C(=O)N[C@@H](Cc1ccccc1)C(=O)N[C@]1(C)CCCCCCC=CCCC[C@@](C)(C(=O)N[C@@H](CO)C(=O)N[C@@H](C)C(=O)N[C@@H](Cc2ccccc2)C(N)=O)NC(=O)[C@H](CC2CCC2)NC(=O)[C@H](CCC(N)=O)NC(=O)[C@H](Cc2c[nH]c3ccccc23)NC(=O)[C@H](Cc2c[nH]c3ccccc23)NC(=O)[C@H](Cc2ccc(O)cc2)NC(=O)[C@H](C)NC1=O)[C@@H](C)O [compound 263] (Ac-LTF[R8]AYWWQ[Cba][S5]SAF-NH2; staple 4-11)	10 to 100 nM	< 10 nM	100 to 1000 nM	10 to 100 nM
CC[C@H](C)[C@H](NC(=O)[C@H](C)NC(=O)[C@H](C)NC(=O)[C@]1(C)CCCC=CCCCCCC[C@@](C)(NC(=O)[C@H](Cc2ccccc2)NC(=O)[C@@H](NC(=O)[C@H](CC(C)C)NC(C)=O)[C@@H](C)O)C(=O)N[C@@H](C)C(=O)N[C@@H](Cc2ccc(O)cc2)C(=O)N[C@@H](Cc2c[nH]c3ccccc23)C(=O)N[C@@H](C)C(=O)N[C@@H](CCC(N)=O)C(=O)N[C@@H](CC2CCC2)C(=O)N1)C(=O)N[C@H](C)C(N)=O [compound 264] (Ac-LTF[R8]AYWAQ[Cba][S5]AAI[dA]-NH2; staple 4-11)	10 to 100 nM	< 10 nM	10 to 100 nM	10 to 100 nM
CC[C@H](C)[C@H](NC(=O)[C@H](C)NC(=O)[C@H](C)NC(=O)[C@]1(C)CCCC=CCCCCCC[C@@](C)(NC(=O)[C@H](Cc2ccccc2)NC(=O)[C@@H](NC(=O)[C@H](CC(C)C)NC(C)=O)[C@@H](C)O)C(=O)N[C@@H](C)C(=O)N[C@@H](Cc2ccc(O)cc2)C(=O)N[C@@H](Cc2c[nH]c3cc(Cl)ccc23)C(=O)N[C@@H](C)C(=O)N[C@@H](CCC(N)=O)C(=O)N[C@@H](CC2CCC2)C(=O)N1)C(=O)N[C@H](C)C(N)=O [compound 266] (Ac-LTF[R8]AY[Trp(6-Cl)]AQ[Cba][S5]AAI[dA]-NH2; staple 4-11)	10 to 100 nM	< 10 nM	100 to 1000 nM	10 to 100 nM
CC[C@H](C)[C@H](NC(=O)[C@H](C)NC(=O)[C@H](C)NC(=O)[C@]1(C)CCCC=CCCCCCC[C@@](C)(NC(=O)[C@H](Cc2ccccc2)NC(=O)[C@@H](NC(=O)[C@H](CC(C)C)NC(C)=O)[C@@H](C)O)C(=O)N[C@@H](C)C(=O)N[C@@H](Cc2ccc(C(=O)O)cc2)C(=O)N[C@@H](Cc2c[nH]c3ccccc23)C(=O)N[C@@H](C)C(=O)N[C@@H](CCC(N)=O)C(=O)N[C@@H](CC2CCC2)C(=O)N1)C(=O)N[C@H](C)C(N)=O [compound 267] (Ac-LTF[R8]A[Phe(4-COOH)]WAQ[Cba][S5]AAI[dA]-NH2; staple 4-11)	10 to 100 nM	< 10 nM	10 to 100 nM	< 10 nM
CCCC[C@H](NC(=O)[C@H](Cc1c[nH]c2ccccc12)NC(=O)[C@H](C)NC(=O)[C@]1(C)CCCC=CCCCCCC[C@@](C)(NC(=O)[C@H](Cc2ccccc2)NC(=O)[C@@H](NC(=O)[C@H](CCC(=O)O)NC(C)=O)[C@@H](C)O)C(=O)N[C@@H](C)C(=O)N[C@@H](Cc2ccc(O)cc2)C(=O)N[C@@H](Cc2c[nH]c3ccccc23)C(=O)N[C@@H](C)C(=O)N[C@@H](CCC(N)=O)C(=O)N[C@@H](CC2CCC2)C(=O)N1)C(=O)N[C@H](C)C(N)=O [compound 270] (Ac-ETF[R8]AYWAQ[Cba][S5]AW[Nle][dA]-NH2; staple 4-11)	< 10 nM	< 10 nM	10 to 100 nM	10 to 100 nM
